Experimental data as given in patent US11485742B2, “2-azaspiro[3.4]octane derivatives as M4 agonists” (NOVARTIS AG, priority 2019, dated 2022).
Structures can show the parent of a compound that is named as a salt.

Molecular target: T1, Cloned human M1 receptor (CHRM1) (Homo sapiens, UniProt P11229)
T1 construct: expressed in transfected cells; host or cells: HEK293
T1 sequence (P11229 1-460): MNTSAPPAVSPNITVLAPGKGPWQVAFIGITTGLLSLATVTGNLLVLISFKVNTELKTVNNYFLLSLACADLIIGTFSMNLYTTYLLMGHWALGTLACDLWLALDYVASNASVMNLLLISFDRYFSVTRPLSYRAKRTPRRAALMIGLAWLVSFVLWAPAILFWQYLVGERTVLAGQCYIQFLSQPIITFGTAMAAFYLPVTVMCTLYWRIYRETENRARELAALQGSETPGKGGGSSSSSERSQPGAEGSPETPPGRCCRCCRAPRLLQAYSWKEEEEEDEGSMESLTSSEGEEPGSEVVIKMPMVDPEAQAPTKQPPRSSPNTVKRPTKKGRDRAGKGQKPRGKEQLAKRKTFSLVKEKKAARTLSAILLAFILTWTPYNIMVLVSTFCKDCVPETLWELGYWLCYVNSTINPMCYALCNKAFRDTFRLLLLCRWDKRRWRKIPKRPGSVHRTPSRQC
Test: CHRM1 Ca++ Flux Assay (HEK293 M1 cells, agonist mode)
Type: cell-based
Conditions: for Emax: Percent Activity (PA), read-out: M1 FDSS PA %; for EC50: geometric mean if tested more than once, read-out: M1 FDSS EC50
Summary of the method: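 HEK293 cells stably expressing human M1 were loaded with Ca++ dye, then given compounds (11-point dose, triplicate) in HBSS −Ca/−Mg, 20 mM HEPES. Ca++ flux was read over 3 min (agonist mode). Four-parameter curves were fitted, with activity as percent of carbachol EC100.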

Emax | EC50 | SMILES
86% | 864 nM | c1ccc(C2CCN([C@@H]3COC4(C3)CN(c3nncs3)C4)CC2)c(OC2COC2)c1 [Example 5Q, (S)-7-(4-(2-(oxetan-3-yloxy)phenyl)piperidin-1-yl)-2-(1,3,4-thiadiazol-2-yl)-5-oxa-2-azaspiro[3.4]octane formate salt]
87% | 761 nM | COCCOc1ccc(F)cc1C1CCN([C@@H]2COC3(C2)CN(c2nncs2)C3)CC1 [Example 5S, (S)-7-(4-(5-fluoro-2-(2-methoxyethoxy)phenyl)piperidin-1-yl)-2-(1,3,4-thiadiazol-2-yl)-5-oxa-2-azaspiro[3.4]octane]

More lines, now with the values behind:

SMILES | Emax | EC50
Fc1ccc(O[C@H]2CCOC2)c(C2CCN([C@@H]3COC4(C3)CN(c3nncs3)C4)CC2)c1 [Example 5O, (S)-7-(4-(5-fluoro-2-(((S)-tetrahydrofuran-3-yl)oxy)phenyl)piperidin-1-yl)-2-(1,3,4-thiadiazol-2-yl)-5-oxa-2-azaspiro[3.4]octane] | 78% | 789 nM
CC(C)(O)CCOc1ccc(F)cc1C1CCN([C@@H]2COC3(C2)CN(c2nncs2)C3)CC1 [Example 5P, (S)-4-(2-(1-(2-(1,3,4-thiadiazol-2-yl)-5-oxa-2-azaspiro[3.4]octan-7-yl)piperidin-4-yl)-4-fluorophenoxy)-2-methylbutan-2-ol] | 91% | 413 nM
COc1ccccc1C1CCN([C@@H]2COC3(C2)CN(c2nncs2)C3)CC1 [Example 5R, (S)-7-(4-(2-methoxyphenyl)piperidin-1-yl)-2-(1,3,4-thiadiazol-2-yl)-5-oxa-2-azaspiro[3.4]octane] | 52% | 904 nM
COc1cc(F)ccc1C1CCN([C@@H]2COC3(C2)CN(c2nncs2)C3)CC1 [Example 5T, (S)-7-(4-(4-fluoro-2-methoxyphenyl)piperidin-1-yl)-2-(1,3,4-thiadiazol-2-yl)-5-oxa-2-azaspiro[3.4]octane] | 57% | 1790 nM
CC(C)(O)COc1ccc(F)cc1C1CCN([C@@H]2COC3(C2)CN(c2nncs2)C3)CC1 [Example 5U, (S)-1-(2-(1-(2-(1,3,4-thiadiazol-2-yl)-5-oxa-2-azaspiro[3.4]octan-7-yl)piperidin-4-yl)-4-fluorophenoxy)-2-methylpropan-2-ol] | 75% | 2440 nM
